Assay results: patent EP2062578A1, “Novel use of chemical compounds for the treatment of AIDS” (priority 2007, dated 2009)
“Also recorded” adds a separate entry of the source.

What was measured:
Nef57-205 = target: T1, Nef57-205 (Human immunodeficiency virus type 1 group M subtype B, UniProt P03406); assay: Isothermal Titration Calorimetry (ITC) binding to Nef57-205; set-up: species or system HIV-1; conditions: for ΔH: enthalpy variation; for ΔH / TΔS / ΔG / N: ITC at 25 °C; for TΔS: entropy variation; for ΔG: free enthalpy variation; for N: stoichiometry, Compound X in 20 mM Hepes pH 7.0, Compound Y in 20 mM Na-phosphate pH 8.0, 100 mM NaCl, 5% DMSO
T1 construct: Purified Nef57-205, as described in Arold et al, Structure 1997 5(10) p 1361); made in house
Method: Isothermal titration calorimetry (ITC) is used to investigate in vitro the binding affinity and thermodynamic parameters of the inhibitory molecules.
Purified Nef57-205, as described in Arold et al, Structure 1997 5(10) p 1361) was extensively dialyzed in degassed ITC buffer (20 mM Hepes pH 7.0, 100 mM NaCl, 5% DMSO), except for binding experiments with Compound Y, where 20 mM Na-phosphate pH 8.0, 100 mM NaCl, 5% DMSO was used as buffer. Synthetic inhibitors were first dissolved at 10 mM in 100% DMSO, and then diluted to 300 - 400 µM in ITC buffer with DMSO concentration adjusted to 5%. Inhibitors were injected from the 300 µL syringe into the 1.4 mL sample cell containing 15-25 µM Nef57-205. ITC titrations were performed at 25 °C, using 10 - 15 µl injections every 300 secondes. All inhibitors were also titrated into ITC buffer alone, and the resulting heat of dilution was subtracted from the experimental curves. ITC was performed with a VP ITC MicroCalorimeter from MicroCal Inc., and data were fitted with Microcal Origin™ software. The results are summarized in Table I and illustrated in Figure 1.

[1] = test system: Nef-mediated CD4 down-regulation; assay: CD4 down-regulation by Nef in Nef-GFP transfected human PBMC (flow cytometry); assay type: cell-based; conditions: 25µM or 10µM for 3 hr
Method: (§1) Nef advances the endocytosis and degradation of […] surface proteins, including CD4 and MHC proteins (Schwartz et al., 1996, Nature Medecine 2:338-342). Consequently, some compounds of the instant invention were tested for their ability to prevent their degradations by interacting with Nef. Human peripheral blood mononuclear cells (PBMC) from healthy volunteers were purified by Ficoll gradient centrifugation ( Lymphoprep™, Axis-shield). Washed, isolated PBMC were transiently transfected using the nucleofection technology (human T cell Nucleofector™ kit, 5.10^6 cells, 5µg plasmid DNA Nef-GFP or GFP (Nucleofactor Program V-024™, Amaxa Biosystems)). The same Nef sequence as described above in example 1 was cloned in pEGFP-N3 (Clonetech). […]
(§2) At 45 hr post transfection cells were treated with 25 µM of Compound X or 0.5% DMSO (control) for 3 hrs. Cells were then incubated with human anti-CD4+-PE or human anti-HLA-ABC (MHC-I) and analyzed by flow cytometry. Flow Cytometric Analysis were performed as follows: Cells were washed and resuspended in fluorescence-activated cell sorter (FACS) medium (PBS 2% FCS 0.02% NaN3, pH 7.2). […] Cells were washed and analyzed on FACS scan using Flow Jo software™ (Beckman Coulter for 20100326 and BD Pharmingen for 551497).
(§3) Viable CD4+ T cells were analyzed for GFP and anti-CD4+ (panel A, figure 2) or GFP and anti-HLA-ABC (panel B, figure 2) staining. […]

[2] = test system: Nef-mediated MHC-I down-regulation; assay: MHC-I down-regulation by Nef in Nef-GFP transfected human PBMC (flow cytometry); assay type: cell-based; conditions: 25µM or 10µM for 3 hr, compared with 5µM LY294002 as control
Method: as §1, §2, §3

CC(C)(C)c1ccc(OC(=O)Nc2ccc(O)c(C(=O)O)c2)cc1 [Compound X, 2-hydroxy-5-[(4-tert-butylphenoxy)carbonylamino]benzoic acid] showed a Kd (Nef57-205) of 1.8 ± 0.85 µM, a ΔH (Nef57-205) of -0.956 ± 0.096 kcal/mol and a TΔS (Nef57-205) of 6.88 kcal/mol. For the same compound, the ΔG (Nef57-205) was -7.84 kcal/mol, the N (Nef57-205) was 0.83 ± 0.06 and the “Nef-mediated CD4 down-regulation” value [1] was “not”. The “Nef-mediated MHC-I down-regulation” value [2] was “reduce in a dose-dependent manner; also recorded: partially blocked”.

CC(C)(C)c1ccc(OCC(=O)Nc2cccc(C(=O)O)c2)cc1 [Compound Y, 3-{[(4-tert-butylphenoxy)acetyl]amino}benzoic acid] showed a Kd (Nef57-205) of 0.98 ± 0.3 µM, a ΔH (Nef57-205) of -0.765 ± 0.0478 kcal/mol and a TΔS (Nef57-205) of 7.41 kcal/mol. For the same compound, the ΔG (Nef57-205) was -8.17 kcal/mol and the N (Nef57-205) was 1.14 ± 0.1.
